Activity calls are given as the source filed them. No cut-off for these calls is given here.
Assays:
Streptomyces alboniger [1] = test: Antimicrobial activity against Streptomyces alboniger IFO 12738 assessed as inhibition of aerial mycelial growth at 0.04 ug/disk after 5 days by paper disk method; type: functional, organism-based
Streptomyces alboniger [2] = test: Antimicrobial activity against Streptomyces alboniger IFO 12738 assessed as inhibition of aerial mycelial growth at 0.4 ug/disk after 5 days by paper disk method; type: functional
Streptomyces alboniger [3] = test: Antimicrobial activity against Streptomyces alboniger IFO 12738 assessed as inhibition of growth at 4 ug/disk after 5 days by paper disk method; type: functional; settings: IFO 12738, 120 h, read-out: DIZ
Streptomyces alboniger [4] = test: Antimicrobial activity against Streptomyces alboniger IFO 12738 assessed as inhibition of aerial mycelial growth at 4 ug/disk after 5 days by paper disk method; type: functional
[5] = test system: Streptomyces acidiscabies; test: Antimicrobial activity against Streptomyces acidiscabies ATCC 4900315 assessed as inhibition of growth at 0.4 ug/disk after 5 days by paper disk method; type: functional; settings: ATCC 4900315, 120 h, read-out: DIZ
[6] = test system: Streptomyces acidiscabies; test: Antimicrobial activity against Streptomyces acidiscabies ATCC 4900315 assessed as inhibition of growth at 4 ug/disk after 5 days by paper disk method; type: functional; settings: ATCC 4900315, 120 h, read-out: DIZ
[7] = test system: Streptomyces acidiscabies; test: Antimicrobial activity against Streptomyces acidiscabies ATCC 4900315 assessed as inhibition of aerial mycelial growth at 0.4 ug/disk after 5 days by paper disk method; type: functional
[8] = test system: Streptomyces acidiscabies; test: Antimicrobial activity against Streptomyces acidiscabies ATCC 4900315 assessed as inhibition of aerial mycelial growth at 0.04 ug/disk after 5 days by paper disk method; type: functional
[9] = test system: Streptomyces acidiscabies; test: Antimicrobial activity against Streptomyces acidiscabies ATCC 4900315 assessed as inhibition of aerial mycelial growth at 4 ug/disk after 5 days by paper disk method; type: functional
Streptomyces scabiei [10] = test: Antimicrobial activity against Streptomyces scabiei ATCC 4917314 assessed as inhibition of aerial mycelial growth at 0.04 ug/disk after 5 days by paper disk method; type: functional
Streptomyces scabiei [11] = test: Antimicrobial activity against Streptomyces scabiei ATCC 4917314 assessed as inhibition of growth at 4 ug/disk after 5 days by paper disk method; type: functional; settings: ATCC 4917314, 120 h, read-out: DIZ
Streptomyces scabiei [12] = test: Antimicrobial activity against Streptomyces scabiei ATCC 4917314 assessed as inhibition of aerial mycelial growth at 4 ug/disk after 5 days by paper disk method; type: functional; settings: for zone of inhibition at 4 µg/disc: ATCC 4917314, 120 h, read-out: DIZ
Streptomyces scabiei [13] = test: Antimicrobial activity against Streptomyces scabiei ATCC 4917314 assessed as inhibition of aerial mycelial growth at 0.40 ug/disk after 5 days by paper disk method; type: functional; settings: for zone of inhibition at 0.4 µg/disc: ATCC 4917314, 120 h, read-out: DIZ
Streptomyces scabiei [14] = test: Growth stimulation of Streptomyces scabiei ATCC 4917314 at 0.4 ug/disk after 5 days by paper disk method; type: functional; settings: ATCC 4917314, 120 h, read-out: DIZ
Streptomyces scabiei [15] = test: Growth stimulation of Streptomyces scabiei ATCC 4917314 at 4 ug/disk after 5 days by paper disk method; type: functional
Streptomyces alboniger [16] = test: Antimicrobial activity against Streptomyces alboniger IFO 12738 assessed as inhibition of growth at 0.4 ug/disk after 5 days by paper disk method; type: functional; settings: IFO 12738, 120 h, read-out: DIZ
Streptomyces scabiei [17] = test: Antimicrobial activity against Streptomyces scabiei ATCC 4917314 assessed as inhibition of growth at 0.4 ug/disk after 5 days by paper disk method; type: functional; settings: ATCC 4917314, 120 h, read-out: DIZ

NC[C@H]1O[C@H](O[C@H]2[C@H](O)[C@@H](O[C@H]3O[C@H](CO)[C@@H](O)[C@H](N)[C@H]3O)[C@H](N)C[C@@H]2N)[C@H](O)[C@@H](O)[C@@H]1O [KANAMYCIN]
diameter of the inhibition zone (DIZ) (Streptomyces alboniger [1]): inactive | diameter of the inhibition zone (DIZ) (Streptomyces alboniger [2]): inactive | zone of inhibition at 4 µg/disc (Streptomyces alboniger [3]): 14 mm | diameter of the inhibition zone (DIZ) (Streptomyces alboniger [4]): inactive | zone of inhibition at 0.4 µg/disc [5]: 12 mm | zone of inhibition at 4 µg/disc [6]: 18 mm | diameter of the inhibition zone (DIZ) [7]: inactive | diameter of the inhibition zone (DIZ) [8]: inactive | diameter of the inhibition zone (DIZ) [9]: inactive | diameter of the inhibition zone (DIZ) (Streptomyces scabiei [10]): inactive | zone of inhibition at 4 µg/disc (Streptomyces scabiei [11]): 13 mm | zone of inhibition at 4 µg/disc (Streptomyces scabiei [12]): 18 mm | zone of inhibition at 0.4 µg/disc (Streptomyces scabiei [13]): 10 mm

N[C@@H]1CONC1=O [CYCLOSERINE]
diameter of the inhibition zone (DIZ) (Streptomyces alboniger [1]): inactive | diameter of the inhibition zone (DIZ) (Streptomyces alboniger [2]): inactive | diameter of the inhibition zone (DIZ) (Streptomyces alboniger [4]): inactive | diameter of the inhibition zone (DIZ) [7]: inactive | diameter of the inhibition zone (DIZ) [8]: inactive | diameter of the inhibition zone (DIZ) [9]: inactive | zone of inhibition at 0.4 µg/disc (Streptomyces scabiei [14]): 24 mm | Activity (Streptomyces scabiei [15]): 44 mm | diameter of the inhibition zone (DIZ) (Streptomyces scabiei [10]): inactive | diameter of the inhibition zone (DIZ) (Streptomyces scabiei [12]): inactive | diameter of the inhibition zone (DIZ) (Streptomyces scabiei [13]): inactive

CO/N=C(\C(=O)N[C@@H]1C(=O)N2C(C(=O)O)=C(COC(C)=O)CS[C@H]12)c1csc(N)n1 [CEFOTAXIME]
diameter of the inhibition zone (DIZ) (Streptomyces alboniger [1]): inactive | diameter of the inhibition zone (DIZ) (Streptomyces alboniger [2]): inactive | diameter of the inhibition zone (DIZ) (Streptomyces alboniger [4]): inactive | diameter of the inhibition zone (DIZ) [7]: inactive | diameter of the inhibition zone (DIZ) [8]: inactive | zone of inhibition at 4 µg/disc ([9]; ATCC 4900315, 120 h, read-out: DIZ): 15 mm | zone of inhibition at 4 µg/disc (Streptomyces scabiei [15]; Streptomyces scabiei, ATCC 4917314, 120 h, read-out: DIZ): 22 mm | diameter of the inhibition zone (DIZ) (Streptomyces scabiei [10]): inactive | diameter of the inhibition zone (DIZ) (Streptomyces scabiei [12]): inactive | diameter of the inhibition zone (DIZ) (Streptomyces scabiei [13]): inactive

CN[C@@H]1[C@H](O[C@H]2[C@H](O[C@H]3[C@H](O)[C@@H](O)[C@H](N=C(N)N)[C@@H](O)[C@@H]3N=C(N)N)O[C@@H](C)[C@]2(O)C=O)O[C@@H](CO)[C@H](O)[C@H]1O [STREPTOMYCIN]
diameter of the inhibition zone (DIZ) (Streptomyces alboniger [1]): inactive | zone of inhibition at 0.4 µg/disc (Streptomyces alboniger [16]): 15 mm | diameter of the inhibition zone (DIZ) (Streptomyces alboniger [2]): inactive | diameter of the inhibition zone (DIZ) (Streptomyces alboniger [4]): inactive | diameter of the inhibition zone (DIZ) [7]: inactive | diameter of the inhibition zone (DIZ) [8]: inactive | diameter of the inhibition zone (DIZ) [9]: inactive | zone of inhibition at 0.4 µg/disc (Streptomyces scabiei [17]): 13 mm | diameter of the inhibition zone (DIZ) (Streptomyces scabiei [10]): inactive | zone of inhibition at 4 µg/disc (Streptomyces scabiei [11]): 18 mm | zone of inhibition at 4 µg/disc (Streptomyces scabiei [12]): 28 mm | zone of inhibition at 0.4 µg/disc (Streptomyces scabiei [13]): 19 mm
